No end group written: not given here.
Tests used:
A. baumannii ATCC 19606 [1] = experiment: Cytoplasmic membrane depolarization assay (DiSC3-5); type: cell-based, Acinetobacter baumannii; settings: A. baumannii ATCC 19606, peptides at their MIC, 60 min; compared with polymyxin B and levofloxacin
Method: The cytoplasmic membrane depolarization assay was performed using the membrane-potential-sensitive dye DiSC3-5. A. baumannii ATCC 19606 in the mid-logarithmic phase were washed and resuspended at 0.05 OD ml^−1 (optical value at 600 nm) in HEPES buffer (pH 7.2) containing 20 mmol l^−1 of glucose and 0.1 mol l^−1 of KCl. DiSC3-5 (20 μmol l^−1) was added to the bacterial suspension (100 μl per well) for 15 min to stabilize the fluorescence, which indicates the incorporation of the dye into the bacterial membrane, and then the peptides were mixed 1:1 with the bacteria to a final concentration corresponding to their MIC values. Membrane depolarization was then followed by reading changes in the fluorescence (λex = 622 nm, λem = 670 nm) over time for 60 min. The relative fluorescence was calculated using the untreated control (buffer + bacteria + fluorescent dye) and polymyxin B (positive control) as baselines and the following equation was applied to reflect the percentage of difference between the baselines and the sample: Percentagedifference=100×(fluorescencesample−fluorescenceuntreatedcontrol)/fluorescenceuntreatedcontrol.

A. baumannii ATCC 19606 [2] = type: cell-based, Acinetobacter baumannii; settings: ATCC 19606, 24 h
Description: In this study, we used the following pathogenic bacterial strains: A. baumannii ATCC 19606, E. coli ATCC 11775, E. coli AIC221 [E. coli MG1655 phnE_2::FRT (control strain for AIC 222)], E. coli AIC222 [E. coli MG1655 pmrA53 phnE_2::FRT (polymyxin resistant; colistin-resistant strain)], K. pneumoniae ATCC 13883, P. aeruginosa PAO1, P. aeruginosa PA14, Staphylococcus aureus ATCC 12600, S. aureus ATCC BAA-1556 (methicillin-resistant strain), Enterococcus faecalis ATCC 700802 (vancomycin-resistant strain), and Enterococcus faecium ATCC 700221 (vancomycin-resistant strain). Pseudomonas Isolation (P. aeruginosa strains) agar plates were exclusively used in the case of Pseudomonas species. All the other pathogens were grown in Luria–Bertani (LB) broth and on LB agar. In all the experiments, bacteria were inoculated from one-isolated colony and grown overnight (16 h) in a liquid medium at 37 °C. On the following day, inoculums were diluted 1:100 in fresh media and incubated at 37 °C to mid-logarithmic phase.
Broth microdilution assays were conducted to establish the MIC for each peptide[53]–[55]. Peptides were added to untreated polystyrene 96-well microtitre plates and serially diluted twofold in sterile water, ranging from 0 to 64 μmol l^−1. A bacterial inoculum at a concentration of 10^6 CFU ml^−1 in LB medium was then mixed in a 1:1 ratio with the peptide solution. […] Each assay was performed in three independent replicates.

[3] = tested on: human embryonic kidney (HEK293T) cells; experiment: Cytotoxicity assay (MTT); type: cell-based; settings: 24 h exposure, concentration range tested 4–64 μmol l^−1 (method: 8–128 μmol l^−1), three biological replicates
Method: One day before the experiment, an aliquot of 100 μl of the cells at 50,000 cells ml^−1 was seeded into each well of the cell-treated 96-well plates used in the experiment. The attached HEK293T cells were then exposed to increasing concentrations of the peptides (8–128 μmol l^−1) for 24 h. After the incubation period, we performed the 3-(4,5-dimethylthiazol-2-yl)-2,5-diphenyltetrazolium bromide tetrazolium reduction assay (MTT assay)[55]. The MTT reagent was dissolved at 0.5 mg ml^−1 in the medium without phenol red and was used to replace cell culture supernatants containing the peptides (100 μl per well). The samples were incubated for 4 h at 37 °C in a humidified atmosphere containing 5% CO2, yielding the insoluble formazan salt. The resulting salts were then resuspended in hydrochloric acid (0.04 mol l^−1) in anhydrous isopropanol and quantified by spectrophotometric measurements of absorbance at 570 nm. All assays were done as three biological replicates.

| Sequence | cytoplasmic membrane depolarization (DiSC3-5 fluorescence) (A. baumannii ATCC 19606 [1]) | MIC, A. baumannii ATCC 19606 (A. baumannii ATCC 19606 [2]) [µM] | also measured |
| --- | --- | --- | --- |
| HKIKINTIKLKIKLKI [Lophiosin-1-3] | effective depolarizers | – | – |
| IASLHARSIARLLKRWINVHQGLGLKW [Mammuthusin-2-7] | highest depolarization activity within its family | – | – |
| KRKRGLKLATALSLNNKF [Mylodonin-2] | – | 64 | – |
| KTLKIIRLLF [Mammuthusin-3] | – | 32 | – |
| LRIKNHWIHFRVLAKALW [Hesperelin-3-9] | – | – | cytotoxicity against HEK293T cells [3]: generally non-toxic, except for hesperelin-3-9 |
| RNLVRWVAGLKLKKKVIKIKVGIGRWANIK [Hydrodamin-3-9] | – | 8 | – |

Source: paper PMC13201158, “A generative artificial intelligence approach for peptide antibiotic optimization” (Nature Machine Intelligence, 2026)
